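Where inhibition never reached the appropriate level, the endpoint shown equals the highest concentration tested. Otherwise, values were interpolated linearly from a five-concentration, 48-hour dose response in 96-well plates. TGI marks complete inhibition of growth.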 Where a SMILES comes first, the peptide text is derived from it. The star is where a group is joined. Cbz = O=C(OCc1ccccc1)*
Columns and labels:
Assay in all cases: NCI tumour cell line growth inhibition, 48 h
[1] = test system: COLO 205 colon
[2] = test system: DU-145 prostate
[3] = test system: HCC-2998 colon
[4] = test system: HCT-116 colon
[5] = test system: HOP-62 NSCLC
[6] = test system: KM12 colon
[7] = test system: M14 melanoma
[8] = test system: MALME-3M melanoma
[9] = test system: NCI-H23 lung
[10] = test system: NCI-H460 lung
[11] = test system: OVCAR-4 ovarian
[12] = test system: OVCAR-5 ovarian
[13] = test system: OVCAR-8 ovarian
[14] = test system: SK-MEL-2 melanoma
[15] = test system: SK-MEL-28 melanoma
[16] = test system: SNB-19 CNS
[17] = test system: UACC-257 melanoma
[18] = test system: SK-OV-3 ovarian
[19] = test system: HL-60(TB) leukemia

Measured: TGI

CC1CN=C(N(C(=O)Nc2ccc(Cl)c(Cl)c2)c2ccccc2)S1 (stereo unspecified)
97.1 µM: [14]
not listed: [18] | [19]
> 100 µM: all other assays above

CC(NC(=O)C(NC(=O)OCc1ccccc1)C(C)C)C(=O)NCC(=O)O (stereo not drawn) (Cbz-Val-Ala-Gly-OH; configuration not given here)
not listed: [11] | [19]
> 100 µM: all other assays above

CC(=O)OCC1OC(n2c(C)cc(C)c(C#N)c2=S)C(OC(C)=O)C(OC(C)=O)C1OC(C)=O (stereo unspecified)
not listed: [18]
> 100 µM: all other assays above

COc1ccc(/C=C2\c3cc(OC)c(OC)cc3CCN2C(=O)c2ccccc2)cc1OC
87.6 µM: [10]
65 µM: [19]
71.1 µM: [8]
not listed: [11] | [18]
> 100 µM: all other assays above

COc1ccc(-c2cc3ccccc3oc2=O)cc1OC
71 µM: [18]
not listed: [3] | [10] | [15]
> 100 µM: all other assays above

CCOC(=O)Cc1ccc(Nc2nc3ccccc3nc2C(=O)OCC)cc1
41 µM: [16]
not listed: [3]
> 100 µM: all other assays above

C=C(Nc1nc2ccc(C)cc2s1)C(=O)C(CC)C(=O)C(CC)CC1C(=O)NC(=O)NC1=O (stereo unspecified)
not listed: [8]
> 100 µM: all other assays above

COC(=O)C1=C(O)c2ccc(Cl)cc2S(=O)(=O)N1C
not listed: [5] | [13]
> 100 µM: all other assays above

CC(C)(C)OC/C=C(/CO)[C@@H]1C=C[C@H](O)C1
not listed: [2] | [13] | [19]
> 100 µM: all other assays above

COCOC1C=CCCCC2=CC(C)=C(CC1)O2 (stereo unspecified)
not listed: [14] | [19]
> 100 µM: all other assays above

CC1=C(CO)C2=C(C)C3(CC3)[C@@](C)(O)C(=O)C2=C1
0.631 µM: [13]
0.298 µM: [1]
0.504 µM: [4]
0.703 µM: [11]
0.329 µM: [3]
0.926 µM: [18]
0.284 µM: [9]
0.487 µM: [17]
0.494 µM: [8]
0.553 µM: [12]
1.44 µM: [15]
0.4 µM: [5]
10.6 µM: [16]
0.698 µM: [7]
0.367 µM: [14]
2.81 µM: [6]
1.79 µM: [19]

CN1C(=O)C2CCCC(=O)N2c2cccnc21 (stereo unspecified)
not listed: [7] | [12] | [18]
> 100 µM: all other assays above

CC(C)=CCC/C(C)=C/CC/C(C)=C/CC(CO)N(C)CC/C=C(\C)CCC=C(C)C (stereo unspecified)
19.3 µM: [17]
15 µM: [5]
21.8 µM: [9]
8.75 µM: [8]
28.9 µM: [18]
14.4 µM: [15]
15.8 µM: [10]
6.85 µM: [1]
20.2 µM: [13]
10.8 µM: [3]
23.7 µM: [2]
14.5 µM: [6]
22.4 µM: [11]
6.46 µM: [4]
28.6 µM: [14]
21.5 µM: [16]
3.75 µM: [7]
21.2 µM: [12]

O=c1c2ncn(C3CCCO3)c2n(-c2ccccc2)c(=S)n1-c1ccccc1 (stereo unspecified)
not listed: [8] | [16]
> 100 µM: all other assays above

CC(C)[Si]1(C(C)C)OCC2OC3(CO)C(Oc4nc(=O)ccn43)C2O[Si](C(C)C)(C(C)C)O1 (stereo unspecified)
27.7 µM: [2]
29.3 µM: [15]
26.7 µM: [11]
24.7 µM: [4]
36.3 µM: [18]
27.1 µM: [19]
30.8 µM: [6]
22 µM: [1]
25.4 µM: [3]
31.8 µM: [13]
30.1 µM: [9] | [17]
30.4 µM: [7]
29.2 µM: [5] | [10]
30.5 µM: [14]
32.7 µM: [16]

Cc1ncc([N+](=O)[O-])n1CCNCCCCn1ccnc1[N+](=O)[O-]
not listed: [3] | [16]
> 100 µM: all other assays above

CCOC(=O)NNC(=O)NCCCCNC(=O)NNC(=O)OCC
not listed: [3] | [8] | [11]
> 100 µM: all other assays above

O=C(CC(C(=O)c1ccsc1)c1ccccc1)c1ccccc1 (stereo unspecified)
23 µM: [19]
36.1 µM: [9]
75.9 µM: [11]
not listed: [8] | [14] | [16]
> 100 µM: all other assays above

Cc1ccc(Cl)c2c(=O)c3ccc(N)cc3sc12
97.4 µM: [9]
20.4 µM: [19]
44.6 µM: [14]
> 100 µM: [2] | [7] | [10] | [12] | [16]
33.4 µM: [6]
35.1 µM: [4]
52.8 µM: [5]
90.7 µM: [17]
37.5 µM: [1]
52.6 µM: [13]

N#Cc1c(-c2ccc(Cl)cc2)c(C#N)c(=O)n(NS(=O)(=O)c2ccccc2)c1O
55 µM: [10]
41.3 µM: [19]
44 µM: [14]
33.1 µM: [4]
35 µM: [3]
79 µM: [18]
77.8 µM: [6]
not listed: [2] | [9]
> 100 µM: all other assays above

CC(=O)N(C)CCc1c[nH]c2ccccc12
not listed: [3]
> 100 µM: all other assays above

CCOC(=O)c1sc2c(c1OC(=O)c1ccc(OC)cc1)c(=O)n(-c1ccccc1)c(=S)n2-c1ccccc1
24.6 µM: [11]
38 µM: [3]
not listed: [14]
> 100 µM: all other assays above

Nc1ccn([C@H]2CO[C@@H](CO)[C@@H]2O)c(=O)n1
not listed: [7] | [8] | [13] | [16] | [19]
> 100 µM: all other assays above

O=C(Cn1c(-c2ccccc2)cc2ccccc21)N1CCCC1
not listed: [3] | [6] | [9] | [15] | [19]
> 100 µM: all other assays above

COC(=O)NC(C(F)(F)F)(C(F)(F)F)P1(=O)OCCCO1
82.1 µM: [12]
84.6 µM: [10]
78.7 µM: [16]
58.6 µM: [5]
69.9 µM: [1]
83.3 µM: [13]
55.7 µM: [18]
64.7 µM: [6]
> 100 µM: [2] | [7] | [11] | [15]
51.1 µM: [19]
62 µM: [4]
50.9 µM: [9]

O=c1oc2c/c(=C\c3ccc([N+](=O)[O-])cc3)c(=O)c3cccc1c3-2
not listed: [11]
> 100 µM: all other assays above

CCOC(=O)[C@H](C)OC(=O)[C@@](C)(NC(=O)c1ccccc1C(=O)OC)[C@@H]1NC=C(C(=O)OC)CS1
not listed: [19]
> 100 µM: all other assays above

— PubChem BioAssay (NCI)
